From patent US7829665B2 (priority 2005, dated 2010) come the findings set out here.

By EC50 is commonly meant the concentration giving half of the maximal effect. In general, IC50 refers to the concentration at which inhibition is half-maximal.

Where two headings read alike, the source gives them in different places.

Assay [1] relates to HCV sub-genomic replicon in GS4.3 cells (HuH-7 hepatoma cells). The assay is described as follows: Quantitation by ELISA of Neomycin phosphotransferase II (NPTII) in the HCV sub-genomic replicon, GS4.3. The format is cell-based, hepatitis C virus. The settings on record: Hepatitis C virus, Huh-7; GS4.3 cells, 72 h incubation, NPTII ELISA; read-out: Replicon EC50. The essentials:
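Replicon-bearing HuH-7 (GS4.3) cells were exposed to compounds for 72 h in G418-free medium, top final concentration 10 μM, 1% DMSO. Lysates went to an NPTII ELISA read at 450 nm. Signal was normalised to DMSO-treated wells and EC50 was derived by four-parameter curve fitting.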

The target of assay [2] is T1, full-length NS3/NS4A-2 (HCV NS3 protease) (Hepatitis C virus genotype 1a, UniProt P27958).
T1 construct: Recombinant E. coli or Baculovirus full-length NS3 was diluted to 3.33 μM with assay buffer; made in house; host or cells: E. coli or baculovirus (BV) expression system
T1 sequence (P27958 1027-1657): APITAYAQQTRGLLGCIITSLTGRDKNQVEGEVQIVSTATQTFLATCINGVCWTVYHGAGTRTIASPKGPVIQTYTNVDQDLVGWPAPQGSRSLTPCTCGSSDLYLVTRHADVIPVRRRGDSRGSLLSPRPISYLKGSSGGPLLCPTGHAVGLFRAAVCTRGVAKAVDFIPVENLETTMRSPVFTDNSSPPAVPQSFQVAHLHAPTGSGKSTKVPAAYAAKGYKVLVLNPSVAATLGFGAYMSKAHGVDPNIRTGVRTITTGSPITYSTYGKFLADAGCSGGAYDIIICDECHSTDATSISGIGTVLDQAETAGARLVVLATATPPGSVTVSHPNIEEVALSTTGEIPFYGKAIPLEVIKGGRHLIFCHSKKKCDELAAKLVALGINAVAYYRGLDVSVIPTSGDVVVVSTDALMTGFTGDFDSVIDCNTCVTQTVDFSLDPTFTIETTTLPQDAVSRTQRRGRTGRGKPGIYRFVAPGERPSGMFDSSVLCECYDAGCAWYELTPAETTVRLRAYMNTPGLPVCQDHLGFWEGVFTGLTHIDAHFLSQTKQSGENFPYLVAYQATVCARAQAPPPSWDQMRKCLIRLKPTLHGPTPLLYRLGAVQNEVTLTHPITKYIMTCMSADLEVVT
As to the kind of experiment: NS3-NS4 protease assay / NS3 inhibition assay (RETS1 substrate, fluorescence kinetic read). In kind it is biochemical. The essentials:
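Ki values come from IC50 fits corrected via Ki=IC50/(1+[S]/Km), with Km 2.03 μM for E. coli and 1.74 μM for baculovirus full-length NS3. Enzyme (2 or 3 nM NS3, respectively, complexed with NS4A-2) sat with compound, top concentration 50 microM, for 10 min at room temperature. Cleavage of RETS1 (8 μM working solution) was then followed by fluorescence (335/495 nm) over 30 min.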

Where [3] appears, read: recombinant E. coli or Baculovirus full-length NS3 with NS4A-2, read-out: NS3-NS4 IC50.

With `C[C@@H](NC(=O)[C@@]12C[C@H]1/C=C\CCCCC[C@H](NC(=O)OC(C)(C)C)C(=O)N1C[C@H](OC(=O)N3Cc4cccc(F)c4C3)C[C@H]1C(=O)N2)c1ccc(F)cn1` [Compound 629], the EC50 in assay [1] is less than 10000 nM. In assay [2] (setting [3]), the IC50 is less than 1000 nM.
The matching figures for `CC(C)N(C)S(=O)(=O)NC(=O)[C@@]12C[C@H]1/C=C\CCCCC[C@H](NC(=O)OC(C)(C)C)C(=O)N1C[C@H](OC(=O)N3Cc4ccccc4C3)C[C@H]1C(=O)N2` [Compound 201]: less than 100 nM and less than 100 nM.
As for `CCCNC(=O)[C@@]12C[C@H]1/C=C\CCCCC[C@H](NCc1ccc(F)c(F)c1)C(=O)N1C[C@H](OC(=O)N3Cc4cccc(F)c4C3)C[C@H]1C(=O)N2` [Compound 625], in assay [1], the EC50 is less than 10000 nM. The IC50 in assay [2] (setting [3]) is less than 10000 nM.
As for `CC(=O)N[C@H](C(=O)N[C@H]1CCCCC/C=C\[C@@H]2C[C@@]2(C(=O)NS(=O)(=O)C2CC2)NC(=O)[C@@H]2C[C@@H](OC(=O)N3Cc4cccc(Cl)c4C3)CN2C1=O)C1CCCCC1` [Compound 262], the EC50 in assay [1] was less than 1000 nM. Also, in assay [2] (setting [3]), the IC50 was less than 100 nM.
As for `O=C(NC1CCCC1)N[C@H]1CCCCC/C=C\[C@@H]2C[C@@]2(C(=O)NS(=O)(=O)C2CC2)NC(=O)C2C[C@@H](OC(=O)N3Cc4cccc(F)c4C3)CN2C1=O` (stereo partly drawn) [Compound 178], in assay [1], the EC50 was less than 100 nM. Also, in assay [2] (setting [3]), the IC50 was less than 100 nM.
With `C=CCC1(S(=O)(=O)NC(=O)[C@@]23C[C@H]2/C=C\CCCCC[C@H](NC(=O)OC(C)(C)C)C(=O)N2C[C@H](OC(=O)N4Cc5ccccc5C4)C[C@H]2C(=O)N3)CC1` [Compound 105], in assay [1], the EC50 was less than 100 nM. In assay [2] (setting [3]), the IC50 is less than 100 nM.
As for `CNC(=O)[C@H](NC(=O)[C@@]12C[C@H]1/C=C\CCCCC[C@H](NC(=O)OC(C)(C)C)C(=O)N1C[C@H](OC(=O)N3Cc4cccc(F)c4C3)C[C@H]1C(=O)N2)c1ccc(F)cc1` [Compound 632], the 50% effective concentration (EC50) in assay [1] was less than 10000 nM. In addition, the IC50 in assay [2] (setting [3]) was less than 1000 nM.
The matching figures for `COc1cccc(CN[C@H]2CCCCC/C=C\[C@@H]3C[C@@]3(C(=O)NS(=O)(=O)C3CC3)NC(=O)[C@@H]3C[C@@H](OC(=O)N4Cc5cccc(F)c5C4)CN3C2=O)c1` [Compound 906]: less than 100 nM and less than 100 nM.
For `COC(=O)c1cccc(CNC(=O)[C@@]23C[C@H]2/C=C\CCCCC[C@H](NC(=O)OC(C)(C)C)C(=O)N2C[C@H](OC(=O)N4Cc5cccc(F)c5C4)C[C@H]2C(=O)N3)c1` [Compound 602], in that order: less than 1000 nM and less than 1000 nM.
With `CC(C)NS(=O)(=O)NC(=O)[C@@]12C[C@H]1/C=C\CCCCC[C@H](NC(=O)OC1CCCC1)C(=O)N1C[C@H](OC(=O)N3Cc4cccc(F)c4C3)C[C@H]1C(=O)N2` [Compound 218], the EC50 in assay [1] is less than 100 nM. In addition, in assay [2] (setting [3]), the IC50 is less than 100 nM.
`CC(C)(C)OC(=O)N[C@H]1CCCC/C=C\[C@@H]2C[C@@]2(C(=O)NS(=O)(=O)C2CC2)NC(=O)[C@@H]2C[C@@H](OC(=O)N3Cc4cccc(F)c4C3)CN2C1=O` [Compound 267]: the EC50 in assay [1] was less than 100 nM. Moreover, the IC50 in assay [2] (setting [3]) was less than 100 nM.
Take `CC(C)(C)OC(=O)N[C@H]1CCCCC/C=C\[C@@H]2C[C@@]2(C(=O)NS(=O)(=O)C2CC2)NC(=O)[C@@H]2C[C@@H](OC(=O)N3Cc4ccc(C(F)(F)F)cc4C3)CN2C1=O` [Compound 112]: the EC50 in assay [1] is less than 100 nM. In addition, the IC50 in assay [2] (setting [3]) was less than 100 nM.
`CC(C)(C)OC(=O)N[C@H]1CCCOC/C=C\[C@@H]2C[C@@]2(C(=O)NCC2CC2)NC(=O)[C@@H]2C[C@@H](OC(=O)N3Cc4cccc(F)c4C3)CN2C1=O` [Compound 1019]: the EC50 in assay [1] was less than 1000 nM. Moreover, the IC50 in assay [2] (setting [3]) is less than 100 nM.
For `O=C(N[C@H]1CCCCC/C=C\[C@@H]2C[C@@]2(C(=O)NS(=O)(=O)NCC2CC2)NC(=O)[C@@H]2C[C@@H](OC(=O)N3Cc4cccc(F)c4C3)CN2C1=O)OC1CCCC1` [Compound 205], in that order: less than 1000 nM and less than 100 nM.
The matching figures for `CC(C)(C)OC(=O)N[C@H]1CCCCC/C=C\[C@@H]2C[C@@]2(C(=O)O)NC(=O)[C@@H]2C[C@@H](OC(=O)N3Cc4ccc(N5CCOCC5)cc4C3)CN2C1=O` [Compound 176]: greater than 10000 nM and less than 100 nM.
On to `CC(C)(C)OC(=O)N[C@H]1CCOCCCC[C@@H]2C[C@@]2(C(=O)NS(=O)(=O)C2CC2)NC(=O)[C@@H]2C[C@@H](OC(=O)N3Cc4cccc(F)c4C3)CN2C1=O` [Compound 1028, (2R,6S,13aR,14aR,16aS)-6-(tert-butoxycarbonylamino)-14a-(cyclopropylsulfonylcarbamoyl)-5,16-dioxohexadecahydro-1H-cyclopropa(j)pyrrolo[1,2-f][1,6,9]oxadiazacyclopentadecin-2-yl 4-fluoroisoindoline-2-carboxylate], for which, in assay [1], the EC50 was less than 100 nM. Besides, in assay [2] (setting [3]), the IC50 was less than 100 nM.
For the compound `CC(C)(C)OC(=O)N[C@H]1CCCCC/C=C\[C@@H]2C[C@@]2(C(=O)NS(=O)(=O)C2CC2)NC(=O)[C@@H]2C[C@@H](OC(=O)N3Cc4cccc(Br)c4C3)CN2C1=O` [Compound 160], the EC50 in assay [1] was less than 100 nM. Also, the IC50 in assay [2] (setting [3]) is less than 100 nM.
For the compound `CC(C)(C)OC(=O)N[C@H]1CCCCC/C=C\[C@@H]2C[C@@]2(C(=O)NS(=O)(=O)N2CCCC2)NC(=O)[C@@H]2C[C@@H](OC(=O)N3Cc4cccc(Cl)c4C3)CN2C1=O` [Compound 214], the EC50 in assay [1] was less than 100 nM. Moreover, in assay [2] (setting [3]), the IC50 was less than 100 nM.
In the case of `CC(C)(C)OC(=O)N[C@H]1COCCC/C=C\[C@@H]2C[C@@]2(C(=O)NS(=O)(=O)C2CC2)NC(=O)[C@@H]2C[C@@H](OC(=O)N3Cc4cccc(F)c4C3)CN2C1=O` [Compound 1020, (2R,6S,13aS,14aR,16aS,Z)-6-(tert-butoxycarbonylamino)-14a-(cyclopropylsulfonylcarbamoyl)-5,16-dioxo-2,3,5,6,7,9,10,11,13a,14,14a,15,16,16a-tetradecahydro-1H-cyclopropa(i)pyrrolo[1,2-e][1,5,8]oxadiazacyclopentadecin-2-yl 4-fluoroisoindoline-2-carboxylate], the EC50 in assay [1] is less than 100 nM. Besides, in assay [2], the IC50 was less than 100 nM.
For `CC(C)(C)OC(=O)N[C@H]1CCCCC/C=C\[C@@H]2C[C@@]2(C(=O)NS(=O)(=O)c2cnccc2Cl)NC(=O)[C@@H]2C[C@@H](OC(=O)N3Cc4ccccc4C3)CN2C1=O` [Compound 108], the EC50 in assay [1] was less than 10000 nM. In addition, the IC50 in assay [2] (setting [3]) is less than 100 nM.
For `O=C(N[C@H](C(=O)N[C@H]1CCCCC/C=C\[C@@H]2C[C@@]2(C(=O)NS(=O)(=O)C2CC2)NC(=O)[C@@H]2C[C@@H](OC(=O)N3Cc4cccc(Cl)c4C3)CN2C1=O)C1CCCCC1)c1cnccn1` [Compound 263], in that order: less than 100 nM and less than 100 nM.
The matching figures for `O=C1N[C@]2(C(=O)NS(=O)(=O)C3CC3)C[C@H]2/C=C\CCCCC[C@H](Nc2nc(C(F)(F)F)cs2)C(=O)N2C[C@H](OC(=O)N3Cc4cccc(F)c4C3)C[C@@H]12` [Compound 926]: less than 100 nM and less than 100 nM.
With `O=C(N[C@H]1CCCCC/C=C\[C@@H]2C[C@@]2(C(=O)NS(=O)(=O)C2CC2)NC(=O)[C@@H]2CCCN2C1=O)C1CC1` [Compound 317], the concentration for a half-maximal effect (EC50) in assay [1] was greater than 10000 nM. Further, the IC50 in assay [2] (setting [3]) was less than 1000 nM.
For `Cc1ccc(CN[C@H]2CCCCC/C=C\[C@@H]3C[C@@]3(C(=O)NS(=O)(=O)C3CC3)NC(=O)[C@@H]3C[C@@H](OC(=O)N4Cc5cccc(F)c5C4)CN3C2=O)o1` [Compound 909], in that order: less than 100 nM and less than 100 nM.
On to `CN(C)C(=O)[C@@]12C[C@H]1/C=C\CCCCC[C@H](NC(=O)OC(C)(C)C)C(=O)N1C[C@H](OC(=O)N3Cc4cccc(F)c4C3)C[C@H]1C(=O)N2` [Compound 610], for which the EC50 in assay [1] was greater than 10000 nM. In addition, in assay [2] (setting [3]), the half-maximal inhibitory concentration (IC50) is less than 1000 nM.
As to `O=C(N[C@H]1CCCCC/C=C\[C@@H]2C[C@@]2(C(=O)NS(=O)(=O)C2CC2)NC(=O)[C@@H]2C[C@@H](OC(=O)N3Cc4cccc(Cl)c4C3)CN2C1=O)OC1CCCC1` [Compound 141], in assay [1], the EC50 is less than 100 nM. Further, the IC50 in assay [2] (setting [3]) was less than 100 nM.
`CC(C)(C)OC(=O)N[C@H]1CCCCC/C=C\[C@@H]2C[C@@]2(C(=O)NS(=O)(=O)C2CC2)NC(=O)[C@@H]2C[C@@H](OC(=O)N3CCc4c(F)ccc(Cl)c4C3)CN2C1=O` [Compound 259]: the EC50 in assay [1] is less than 100 nM. In addition, in assay [2] (setting [3]), the IC50 was less than 100 nM.
For the compound `CC(C)(C)OC(=O)N[C@H]1CCCCC/C=C\[C@@H]2C[C@@]2(C(=O)NS(=O)(=O)NC2CC2)NC(=O)[C@@H]2C[C@@H](OC(=O)N3Cc4cccc(Cl)c4C3)CN2C1=O` [Compound 213], the EC50 in assay [1] was less than 100 nM. Moreover, the IC50 in assay [2] (setting [3]) was less than 100 nM.
Turning to `O=C(N[C@H]1CCCCC/C=C\[C@@H]2C[C@@]2(C(=O)NS(=O)(=O)C2CC2)NC(=O)[C@H]2Cc3cc(Oc4cccc(Cl)c4)ccc3CN2C1=O)OC1CCCC1` [Compound 2005, Cyclopentyl (1aS,9S,17aR,19aR,Z)-15-(3-chlorophenoxy)-19a-(cyclopropylsulfonylcarbamoyl)-10,18-dioxo-1a,4,5,6,7,8,9,10,12,17,17a,18,19,19a-tetradecahydro-1H-11,14-diaza-bicyclo[13.1.0]hexadeca-1(15), 2-dieno[11,12-b]isoquinolin-9-ylcarbamate], the EC50 in assay [1] is less than 1000 nM. The IC50 in assay [2] (setting [3]) is less than 100 nM.
`N[C@H]1CCCCC/C=C\[C@@H]2C[C@@]2(C(=O)NS(=O)(=O)c2ccc(Cl)s2)NC(=O)[C@@H]2C[C@@H](OC(=O)N3Cc4cccc(Cl)c4C3)CN2C1=O` [Compound 168]: in assay [1], the EC50 is less than 10000 nM. The compound further showed an IC50 in assay [2] of less than 100 nM.
